Experimental data from US11739385B2, “Discovery of a somatic mutation in MYD88 gene in lymphoplasmacytic lymphoma” (Dana-Farber Cancer Institute, Inc., priority 2011, dated 2023).
Read-outs that look alike come from different tables or passages of the source.

Key:
[1] = tested on: NF-κB signaling; conditions: L265P expressing ABC DLBCL cell lines; cited from earlier work
[2] = tested on: NF-κB signaling; assay: NF-κB signaling in BCWM.1 and MWCL-1 WM cells; type: cell-based; conditions: BCWM.1 and MWCL-1 WM cells which possess the MYD88 L265P mutation
[3] = tested on: MYD88 L265P expressing WM cells; assay: Apoptosis analysis by Annexin V and PI staining; type: cell-based; conditions: BCWM.1 and MWCL-1 WM cells which possess the MYD88 L265P mutation
Method: Western blot analysis was performed using total and phospho-specific antibodies in MYD88 L265P expressing WM cells, BCWM.1 and MCWL-1 following MYD88 knockdown by lentiviral transduction, and/or use of MYD88 or IRAK signal inhibitors. […] Annexin V/PI staining was used to assess cell survival, and synergism assessed with CalcuSyn software.

For O=C(Nc1nc2ccccc2n1CCN1CCOCC1)c1cccc([N+](=O)[O-])c1 [IRAK1/4 inhibitor, N-(2-Morpholinylethyl)-2-(3-nitrobenzoylamido)-benzimidazole], the NF-κB signaling [1] is listed as “loss of NF-κB signaling”, the NF-κB signaling [2] is listed as “loss of NF-κB signaling” and the apoptosis [3] is listed as “enhanced apoptosis”.
